# Measurements reported in patent US20080318892A1, “METHODS AND FORMULATIONS FOR PROTECTING CELLS, AND FOR TREATING DISEASES AND CONDITIONS BY OPTIMIZING THE INTRACELLULAR CONCENTRATION OF NAD” (priority 2007, published 2008).
# Changes are numbered by the printed parent chain. In names and notes the source's numbering stands.
# B1: SIRT1 H363Y: dominant-negative form of SIRT1 (H363Y), retrovirally transduced (protein, UniProt Q96EB6 2-747, looked up, variant H363Y)
# NAD-dependent protein …: ADEAALALQPGGSPSAAGADREAASSPAGEPLRKRPRRDGPGLERSPGEPGGAAPEREVPAAARGCPGAAAAALWREAEAEAAAAGGEQEAQATAAAGEGDNGPGLQGPSREPPLADNLYDEDDDDEGEEEEEAAAAAIGYRDNLLFGDEIITNGFHSCESDEEDRASHASSSDWTPRPRIGPYTFVQQHLMIGTDPRTILKDLLPETIPPPELDDMTLWQIVINILSEPPKRKKRKDINTIEDAVKLLQECKKIIVLTGAGVSVSCGIPDFRSRDGIYARLAVDFPDLPDPQAMFDIEYFRKDPRPFFKFAKEIYPGQFQPSLCHKFIALSDKEGKLLRNYTQNIDTLEQVAGIQRIIQCYGSFATASCLICKYKVDCEAVRGDIFNQVVPRCPRCPADEPLAIMKPEIVFFGENLPEQFHRAMKYDKDEVDLLIVIGSSLKVRPVALIPSSIPHEVPQILINREPLPHLHFDVELLGDCDVIINELCHRLGGEYAKLCCNPVKLSEITEKPPRTQKELAYLSELPPTPLHVSEDSSSPERTSPPDSSVIVTLLDQAAKSNDDLDVSESKGCMEEKPQEVQTSRNVESIAEQMENPDLKNVGSSTGEKNERTSVAGTVRKCWPNRVAKEQISRRLDGNQYLFLPPNRYIFHGAEVYSDSEDDVLSSSSCGSNSDSGTCQSPSLEEPMEDESEIEEFYNGLEDEPDVPERAGGAGFGTDGDDQEAINEAISVKQEVTDMNYPSNKS
# B2: SIRT1: NAD+-dependent deacetylase; tested by retroviral overexpression of human SIRT1 cDNA in SMCs (protein, UniProt Q96EB6 2-747, looked up)
# NAD-dependent protein …: B1 NAD-dependent protein … with Y362H
# Assays:
# HDAC = assay: Histone deacetylase (HDAC) assay in SMC lysates with [3H]-acetylated histone H4 peptide; format: biochemical, human
# Experimental: HITC6 SMC's were stably transduced with pQXCIP-PURO or pQXCIP-PBEF-PURO and HDAC activity determined in cell lysates (25 μg of protein), using [^3H]histone H4 peptide as the substrate. The reactions were quenched by acid hydrolysis and catalytically released [^3H]-acetate was extracted in ethyl acetate.
# Histone Deacetylase (HDAC) Assays were employed. Histone H4 peptide (Upstate) was labeled with [^3H]-acetyl Coenzyme A (ICN) using PCAF histone acetylase. Cell lysates were harvested using Passive Lysis Buffer (Promega) and 25 μg of protein was incubated at 37° C. for 6 hours with 50,000 cpm of [^3H]-acetyl histone and 1 mM PMSF in HDAC Assay Buffer (Upstate). Released [^3H]-acetate was extracted with ethyl acetate (31) and counted on a Beckman LS3801 scintillation counter.
# PBEF = assay: Knockdown of PBEF by RNA interference: PBEF mRNA (real-time RT-PCR) and protein (Western blot); format: cell-based, human; conditions: HITC6 SMCs, retroviral hairpin siRNA
# Experimental: (§1) Western Blot Analyses were employed to assay marker expression. Expression of PBEF and SMC differentiation markers was assessed by Western blot analysis with chemiluminescence detection, as described (29). Equal amounts of protein were resolved on 12% (for PBEF and α-tubulin), 9% (for smoothelin A and smoothelin B) and 6% (for caldesmon and vinculin-metavinculin) SDS-polyacrylamide gels and transferred PVDF membranes (Immobilon, Millipore). PBEF was detected using a polyclonal rabbit antibody against human PBEF (1857, 1:5000, kindly provided by Amgen). Monoclonal antibodies were used to detect heavy (h)-caldesmon (clone hHCD, 1:1000, Sigma), smoothelin isoforms A and B (clone MAB3242, 1:500, Chemicon), vinculin-metavinculin (clone VIN-11-5, 1:2000, Sigma), and α-tubulin (clone B-5-1-2; 1:16000, Sigma).
# (§2) Knockdown of PBEF by RNA Interference was evaluated with a viral vector. PBEF knockdown was accomplished by infecting human SMC's with retrovirus containing sequences encoding hairpin siRNA fragments. Complementary oligodeoxynucleotides were synthesized, annealed, and inserted between the BamH1 and EcoR1 sites of the retroviral expression vector pSIREN-RetroQ. Three different targeting sequences were used, each consisting of 19 nucleotides starting at nucleotides 147, 384, and […] of the PBEF coding sequence (siRNA147 5′-GGAAGGTGAAATATGAGGA-3′; siRNA384 5′-ATGTTCTCTTCACGGTGGA-3′; siRNA1278 5′-AGGGCCGATTATCTTTACA-3′). Each sequence was separated by a 9-nucleotide noncomplementary spacer from the reverse complement of the same 19-nucleotide sequence. Blast search confirmed that only the PBEF gene was targeted. Control inserts contained the gene-specific 19-nucleotide sequence and hairpin loop sequence but not the antisense component. Infection of SMCs was performed as described above and cells were selected using 3 μg/ml puromycin for 48 hours.
# Real-time RT-PCR was used to analyze nucleic acid evidence. RNA was harvested using RNeasy mini-column and reagents (Qiagen) and subjected to DNaseI treatment. Probe (5′-CAGTTGCTGATCCCA-3′) and flanking primers (5′-primer 5′-[…]-3′; 3′-primer 5′-[…]-3′) for Taqman real-time RT-PCR for PBEF were designed using Primer Express software (Applied Biosystems). Reactions were performed using an ABI-Prism 7900 Sequence Detection System (Applied Biosystems). Optimum signal was obtained with concentrations of 200 nM, 300 nM and 50 nM for the probe, 5′ primer, and 3′ primer, respectively. Standard curves were generated using RNA derived from human aortic SMCs, enabling correlation of the determined threshold cycle to transcript abundance. GAPDH transcript abundance was used as an endogenous RNA control (Assays on Demand Hs9999905, Applied Biosystems) to which PBEF transcript abundance was normalized.
# HITC6 SMC's = assay: Survival, morphology and h-caldesmon expression of PBEF-knockdown SMCs; format: cell-based, human; conditions: for SMC morphology / SMC survival: retroviral hairpin siRNA
# Experimental: as §1, §2
# Microscopy and Image Analysis were used to measure cell robustness and function. Cell images were collected using a Zeiss Axiovert S100 microscope (Carl Zeiss Microimaging Inc.) equipped with Hoffman Modulation Contrast Plan objectives and TCT condenser (Modulation Optics Inc.), cooled QICAM 12-bit Mono Fast 1394 camera (QImaging Inc.) and Northern Eclipse image analysis software (Empix Imaging Inc.). Histology images were acquired with an Olympus BX50 microscope with a BX-FLA illuminator, UPlanF1 objective lenses (Olympus Optical Co. Ltd.), cooled Retiga EXi Mono Fast 1394 camera (QImaging Inc.) and Northern Eclipse image analysis software. Linear image processing was done using Photoshop CS (Adobe Systems Inc.).
# HITC6 SMCs [1] = assay: Senescence-associated beta-galactosidase activity / senescence-free survival; format: cell-based, human; conditions: 37th subculture
# Experimental: Senescence-associated β-Galatosidase Activity Assay. SMCs on glass coverslips at approximately 70% confluence were fixed in 2% formaldehyde/0.2% glutaraldehyde in PBS for 3 minutes and incubated with X-gal-containing reaction mixture, as previously described (Dimri, 1995). Washed cells were stained with Hoechst 33258 (2.5 μg/ml) and the proportion of senescence-associated β-galactosidase (SA β-Gal)-positive cells quantified from 10 microscope fields of view (Olympus BX51, ×20 objective, approximately 1200 cells). Senescence-free survival was determined using Kaplan-Meier analysis of survival vs. replicative age.
# Senescence-associated Beta-galactosidase Activity. Senescence-associated beta-galactosidase (SA-β-gal) activity was determined as previously described (Dimri et al, 1995). Briefly, SMCs were fixed in PBS containing 2% formaldehyde/0.2% glutaraldehyde for 3 min at room temperature. Fixed cells were then incubated for 4-6 h at 37° C. with SA-β-gal stain solution containing 150 mM NaCl, 2 mM MgCl, 40 mM citrate, 5 mM potassium ferrocyanide, 5 mM potassium ferricyanide, and 1 mg/ml of 5-bromo-4-chloro-3-indolyl-β-D-galactopyranoside (X-gal) (Invitrogen, Carlsbad, Calif., USA), at pH 6.0. SMCs were counterstained with 2.5 μg/ml Hoechst 33258 to detect cell nuclei. The proportion of SA-β-gal activity positive cells was quantified using light and fluorescence microscopy (Olympus BX51, Center Valley, Pa., USA).
# HITC6 SMCs [2] = assay: Replicative lifespan (cumulative population doublings) of HITC6 SMCs; format: cell-based, human
# Experimental: To quantify replication, cells were plated at 4500 cells/cm^2 and growth medium with 10% FBS was changed every two days until cells reached 90-95% confluence. Harvested cells were counted from triplicate plates and the number of population doublings was calculated based on: [log10(number of cells harvested)−log10(number of cells seeded)]/[…] (Fukuhara, 2005). Population growth curves were compared using both nonlinear regression and two-way analysis of variance.
# Cell Culture. Experiments were performed using primary human SMCs and the HITC6 clonal SMC line, both derived from segments of human internal thoracic artery (Li et al., 1999; Li et al., 2001). SMCs were maintained at 37° C. with 5% CO2 and cultured in Medium 199 (Invitrogen, Carlsbad, Calif., USA) supplemented with 25 mM HEPES, 10% FBS, 1% penicillin/streptomycin, and 1% L-glutamine. Phoenix cells (distributed by ATCC, Manassas, Va., USA) were maintained at 37° C. with 5% CO2 and cultured in Dulbecco's modified Eagle's medium (Invitrogen, Carlsbad, Calif., USA). To quantify replication, cells were seeded at a density of 4500 cells/cm2 and population doublings were calculated using the following formula: […].
# [3] = test system: primary human vascular SMCs; assay: Replicative lifespan (cumulative population doublings) of primary SMCs; format: cell-based; conditions: SIRT1-overexpressing primary adult SMCs; p<0.01
molecule,measurement,setting,value
"CC(NC(=O)c1ccccc1/N=C/c1c(O)ccc2ccccc12)c1ccccc1 (centres unmarked) [Sirtinol, sirtinol]",HDAC activity in PBEF-overexpressing SMC's,HDAC; 50 μM sirtinol,significantly inhibited
same,HDAC activity in control SMC's,HDAC; 50 μM sirtinol,more modest inhibition
"siRNA1248: retrovirally expressed hairpin siRNA to PBEF, 19 nt from nucleotide 1248: 5'-AGGGCCGATTATCTTTACA-3' (hairpin with spacer and reverse complement)",PBEF mRNA (real-time RT-PCR) vs non-silencing RNA control,PBEF,significant decrease
same,PBEF protein,PBEF,significant suppression
same,h-caldesmon expression (Western blot),HITC6 SMC's,reduced expression
same,SMC morphology,HITC6 SMC's,"short, truncated morphology"
same,SMC survival,HITC6 SMC's,survived poorly
trichostatin A,HDAC activity in both control and PBEF-overexpressing SMC's,HDAC; 40 nM trichostatin A,substantially inhibited
"siRNA384: retrovirally expressed hairpin siRNA to PBEF, 19 nt from nucleotide 384: 5'-ATGTTCTCTTCACGGTGGA-3' (hairpin with spacer and reverse complement)",PBEF mRNA (real-time RT-PCR) vs non-silencing RNA control,PBEF,did not manifest a reduction
same,PBEF protein,PBEF,did not manifest a reduction
same,SMC morphology,HITC6 SMC's,maintained an elongated morphology
"siRNA147: retrovirally expressed hairpin siRNA to PBEF, 19 nt from nucleotide 147: 5'-GGAAGGTGAAATATGAGGA-3' (hairpin with spacer and reverse complement)",PBEF mRNA (real-time RT-PCR) vs non-silencing RNA control,PBEF,significant decrease
same,PBEF protein,PBEF,significant suppression
same,SMC morphology,HITC6 SMC's,"short, truncated morphology"
same,SMC survival,HITC6 SMC's,survived poorly
B1,relative increase in senescence,HITC6 SMCs [1]; dominant-negative SIRT1 co-expressed in PBEF-overexpressing SMCs,55±12%
same,relative increase in senescence,HITC6 SMCs [1]; vector-infected SMCs expressing SIRT1 H363Y,15±10%
same,additional population doublings conferred by Nampt,"HITC6 SMCs [2]; SIRT1 H363Y allele co-expressed with Nampt, p=0.003",0.3±0.3 population doublings
B2,increase in cumulative population doublings vs vector infected SMCs,[3],1.30±0.93 fold
same,increase in number of population doublings,"HITC6 SMCs [2]; SIRT1-SMCs, clonal longer-lived human SMC line, p<0.05",1.17±0.03 fold
